From patent publication US11180462B2, “Microbiocidal oxadiazole derivatives” (SYNGENTA PARTICIPATIONS AG, priority 2015, dated 2021)

Columns and labels:
[1] = system: Glomerella lagenarium (Colletotrichum lagenarium); assay: Fungicidal activity against Glomerella lagenarium (Colletotrichum lagenarium) liquid culture / cucumber / preventative (anthracnose); format: cell-based; details: Colletotrichum orbiculare; 20 ppm in the applied formulation; liquid culture (PDB), growth inhibition measured photometrically after 3 to 4 days; compared to untreated control; read-out: disease control
Procedure, shortened: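 Percent activity against the untreated check was derived from photometric growth measurements made 2 to 7 days after conidia in potato dextrose broth were combined with compound at 20 ppm. Cultures were kept dark at 24 °C and 96% humidity.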

Phakopsora Pachyrhizi = assay: Fungicidal activity against Phakopsora pachyrhizi / soybean / leaf disc preventative (Asian soybean rust); format: in vivo; details: foliar, 200 ppm in the applied formulation, soybean leaf disks, compared to untreated control leaf disks, read-out: disease control
Protocol: Leaf disks or leaf segments of various plant species are cut from plants grown in a greenhouse. The cut leaf disks or segments are placed in multiwell plates (24-well format) onto water agar. The leaf disks are sprayed with a test solution before (preventative) or after (curative) inoculation. Compounds to be tested are prepared as DMSO solutions (max. 10 mg/ml) which are diluted to the appropriate concentration with 0.025% Tween20 just before spraying. The inoculated leaf disks or segments are incubated under defined conditions (temperature, relative humidity, light, etc.) according to the respective test system. A single evaluation of disease level is carried out 3 to 14 days after inoculation, depending on the pathosystem. Percent disease control relative to the untreated check leaf disks or segments is then calculated.
Fungicidal Activity Against Phakopsora Pachyrhizi Soybean/Leaf Disc Preventative (Asian Soybean Rust)
Soybean leaf disks are placed on water agar in multiwell plates (24-well format) and sprayed with the formulated test compound diluted in water. One day after application leaf discs are inoculated by spraying a spore suspension on the lower leaf surface. After an incubation period in a climate cabinet of 24-36 hours in darkness at 20° C. and 75% rh leaf disc are kept at 20° C. with 12 h light/day and 75% rh. The activity of a compound is assessed as percent disease control compared to untreated when an appropriate level of disease damage appears in untreated check leaf disks (12 to 14 days after application).
The following compounds at 200 ppm in the applied formulation give at least 80% disease control in this test when compared to untreated control leaf disks under the same conditions, which show extensive disease development.

Row | SMILES | inhibition of growth at 20 ppm [1] [%] | pest or weed control at 200 ppm (Phakopsora Pachyrhizi) [%]
1 | O=C(CC1CC1)N(Cc1ccc(-c2noc(C(F)(F)F)n2)cc1)CC(F)(F)F [Compound 1.706, 2-cyclopropyl-N-(2,2,2-trifluoroethyl)-N-[[4-[5-(trifluoromethyl)-1,2,4-oxadiazol-3-yl]phenyl]methyl]-acetamide] | ≥ 80 | ≥ 80
2 | CCON(Cc1ccc(-c2noc(C(F)(F)F)n2)cc1)C(=O)c1ccccc1Cl [Compound 1.616, 2-chloro-N-ethoxy-N-[[4-[5-(trifluoromethyl)-1,2,4-oxadiazol-3-yl]phenyl]methyl]-benzamide] | ≥ 80 | ≥ 80
3 | C#CCN(Cc1ccc(-c2noc(C(F)(F)F)n2)cc1)C(=O)CC1CC1(F)F (centres unmarked) [Compound 1.197, 2-(2,2-difluorocyclopropyl)-N-prop-2-ynyl-N-[[4-[5-(trifluoromethyl)-1,2,4-oxadiazol-3-yl]phenyl]methyl]-acetamide] |  | ≥ 80
4 | CCCCON(Cc1ccc(-c2noc(C(F)(F)F)n2)cc1)C(=O)C1(C)COC1 [Compound 1.641, N-butoxy-3-methyl-N-[[4-[5-(trifluoromethyl)-1,2,4-oxadiazol-3-yl]phenyl]methyl]-oxetane-3-carboxamide] | ≥ 80 | ≥ 80
5 | COCCCC(=O)N(Cc1ccc(-c2noc(C(F)(F)F)n2)cc1)C1COC1 [Compound 1.746, 4-methoxy-N-(oxetan-3-yl)-N-[[4-[5-(trifluoromethyl)-1,2,4-oxadiazol-3-yl]phenyl]methyl]-butanamide] |  | ≥ 80
6 | O=C(CC(F)(F)F)N(Cc1ccc(-c2noc(C(F)(F)F)n2)cc1)CC1CC1 [Compound 1.220, N-(cyclopropylmethyl)-3,3,3-trifluoro-N-[[4-[5-(trifluoromethyl)-1,2,4-oxadiazol-3-yl]phenyl]methyl]-propanamide] | ≥ 80 | ≥ 80
7 | O=C(C1CC1)N(Cc1ccc(-c2noc(C(F)(F)F)n2)cc1)CC1CC1 [Compound 1.246, N-(cyclopropylmethyl)-N-[[4-[5-(trifluoromethyl)-1,2,4-oxadiazol-3-yl]phenyl]methyl]-cyclopropane-carboxamide] | ≥ 80 | ≥ 80
8 | C#CCOC(=O)NC(C(=O)N(Cc1ccc(-c2noc(C(F)(F)F)n2)cc1)CC1CC1)C(C)C (centres unmarked) [Compound 1.241, prop-2-ynyl N-[1-(cyclopropylmethyl-[[4-[5-(trifluoromethyl)-1,2,4-oxadiazol-3-yl]phenyl]methyl]-carbamoyl]-2-methyl-propyl]carbamate] |  | ≥ 80
9 | CCCCON(Cc1ccc(-c2noc(C(F)(F)F)n2)cc1)C(=O)CCOC [Compound 1.637, N-butoxy-3-methoxy-N-[[4-[5-(trifluoromethyl)-1,2,4-oxadiazol-3-yl]phenyl]methyl]-propanamide] | ≥ 80 | ≥ 80
10 | CCC(CC(=O)N(Cc1ccc(-c2noc(C(F)(F)F)n2)cc1)OC)C(F)(F)F (centres unmarked) [Compound 1.82, N-methoxy-3-(trifluoromethyl)-N-[[4-[5-(trifluoromethyl)-1,2,4-oxadiazol-3-yl]phenyl]methyl]-pentamide] | ≥ 80 | ≥ 80
11 | O=C(CC1CCCC1)N(Cc1ccc(-c2noc(C(F)(F)F)n2)cc1)C1CC1 [Compound 1.84, 2-cyclopentyl-N-cyclopropyl-N-[[4-[5-(trifluoromethyl)-1,2,4-oxadiazol-3-yl]phenyl]methyl]-acetamide] | ≥ 80 | ≥ 80
12 | CCC(C)C(=O)N(Cc1ccc(-c2noc(C(F)(F)F)n2)cc1)CC(F)(F)F (centres unmarked) [Compound 1.697, 2-methyl-N-(2,2,2-trifluoroethyl)-N-[[4-[5-(trifluoromethyl)-1,2,4-oxadiazol-3-yl]phenyl]methyl]-butanamide] | ≥ 80 | ≥ 80
13 | CCCCON(Cc1ccc(-c2noc(C(F)(F)F)n2)cc1)C(=O)C(CC)COC (centres unmarked) [Compound 1.642, N-butoxy-2-(methoxymethyl)-N-[[4-[5-(trifluoromethyl)-1,2,4-oxadiazol-3-yl]phenyl]methyl]-butanamide] | ≥ 80 | ≥ 80
14 | CCON(Cc1ccc(-c2noc(C(F)(F)F)n2)cc1)C(=O)CC(F)(F)F [Compound 1.630, N-ethoxy-3,3,3-trifluoro-N-[[4-[5-(trifluoromethyl)-1,2,4-oxadiazol-3-yl]phenyl]methyl]-propanamide] | ≥ 80 | ≥ 80
15 | C#CCN(Cc1ccc(-c2noc(C(F)(F)F)n2)cc1)C(=O)C(C)(CC)CC [Compound 1.195, 2-ethyl-2-methyl-N-prop-2-ynyl-N-[[4-[5-(trifluoromethyl)-1,2,4-oxadiazol-3-yl]phenyl]methyl]-butanamide] | ≥ 80 | ≥ 80
16 | CCCN(Cc1ccc(-c2noc(C(F)(F)F)n2)cc1)C(=O)C1CC1C (centres unmarked) [Compound 1.657, 2-methyl-N-propyl-N-[[4-[5-(trifluoromethyl)-1,2,4-oxadiazol-3-yl]phenyl]methyl]-cyclopropane-carboxamide] | ≥ 80 | ≥ 80
17 | N#CC1(C(=O)OCCN(Cc2ccc(-c3noc(C(F)(F)F)n3)cc2)C(=O)C2(C#N)CC2)CC1 [Compound 1.730, 2-[(1-cyanocyclopropane-carbonyl)-[[4-[5-(trifluoromethyl)-1,2,4-oxadiazol-3-yl]phenyl]methyl]-amino]ethyl 1-cyanocyclopropane-carboxylate] | ≥ 80 | ≥ 80
18 | CCCN(Cc1ccc(-c2noc(C(F)(F)F)n2)cc1)C(=O)c1ccccc1Cl [Compound 1.653, 2-chloro-N-propyl-N-[[4-[5-(trifiuoromethyl)-1,2,4-oxadiazol-3-yl]phenyl]methyl]-benzamide] | ≥ 80 | ≥ 80
19 | CCC(C)(CC)C(=O)N(Cc1ccc(-c2noc(C(F)(F)F)n2)cc1)OC [Compound 1.58, 2-ethyl-N-methoxy-2-methyl-N-[[4-[5-(trifluoromethyl)-1,2,4-oxadiazol-3-yl]phenyl]methyl]-butanamide] | ≥ 80 | ≥ 80
20 | CCCCON(Cc1ccc(-c2noc(C(F)(F)F)n2)cc1)C(=O)C1(C)CC1 [Compound 1.639, N-butoxy-1-methyl-N-[[4-[5-(trifluoromethyl)-1,2,4-oxadiazol-3-yl]phenyl]methyl]-cyclopropane-carboxamide] | ≥ 80 | ≥ 80
21 | CCCCON(Cc1ccc(-c2noc(C(F)(F)F)n2)cc1)C(=O)C1(C#N)CC1 [Compound 1.646, N-butoxy-1-cyano-N-[[4-[5-(trifluoromethyl)-1,2,4-oxadiazol-3-yl]phenyl]methyl]-cyclopropane-carboxamide] | ≥ 80 | ≥ 80
22 | CC(C)(C)CC(=O)N(Cc1ccc(-c2noc(C(F)(F)F)n2)cc1)CC1CC1 [Compound 1.224, N-(cyclopropylmethyl)-3,3-dimethyl-N-[[4-[5-(trifluoromethyl)-1,2,4-oxadiazol-3-yl]phenyl]methyl]-butanamide] | ≥ 80 | ≥ 80
23 | CCC(COC)C(=O)N(Cc1ccc(-c2noc(C(F)(F)F)n2)cc1)CC(F)(F)F (centres unmarked) [Compound 1.699, 2-(methoxymethyl)-N-(2,2,2-trifluoroethyl)-N-[[4-[5-(trifluoromethyl)-1,2,4-oxadiazol-3-yl]phenyl]methyl]-butanamide] | ≥ 80 | ≥ 80
24 | O=C(OCCN(Cc1ccc(-c2noc(C(F)(F)F)n2)cc1)C(=O)c1ccccc1Cl)c1ccccc1Cl [Compound 1.710, 2-[(2-chlorobenzoyl)-[[4-[5-(trifluoromethyl)-1,2,4-oxadiazol-3-yl]phenyl]methyl]-amino]ethyl 2-chlorobonzoato] |  | ≥ 80
25 | COCCCC(=O)N(Cc1ccc(-c2noc(C(F)(F)F)n2)cc1)CC(F)(F)F [Compound 1.700, 4-methoxy-N-(2,2,2-trifluoroethyl)-N-[[4-[5-(trifluoromethyl)-1,2,4-oxadiazol-3-yl]phenyl]methyl]-butanamide] | ≥ 80 | ≥ 80
26 | O=C(C1CCC1)N(Cc1ccc(-c2noc(C(F)(F)F)n2)cc1)CC(F)(F)F [Compound 1.694, N-(2,2,2-trifluoroethyl)-N-[[4-[5-(trifluoromethyl)-1,2,4-oxadiazol-3-yl]phenyl]methyl]-cyclobutane-carboxamide] | ≥ 80 | ≥ 80
27 | CCCCON(Cc1ccc(-c2noc(C(F)(F)F)n2)cc1)C(=O)CC#N [Compound 1.645, N-butoxy-2-cyano-N-[[4-[5-(trifluoromethyl)-1,2,4-oxadiazol-3-yl]phenyl]methyl]-acetamide] | ≥ 80 | ≥ 80
